From ChEMBL document CHEMBL5576038, “Design of a novel long-acting dual GLP-1/GIP receptor agonist” (Bioorg Med Chem, 2024)
Where a SMILES comes first, the peptide text is derived from it. [ ]: non-standard residue; d: D form. The star is where a group is joined. X1 = N[C@@H](CCCCNC(=O)CC[C@H](NC(=O)CCCCCCCCCCCCCCCCCCC(=O)O)C(=O)O)C(=O)NCCCC[C@H](N)C(=O)N[C@@H](CCCCNC(=O)C*)C(=O)O; X3 = O=C(O)CCCCCCCCCCCCCCCCC(=O)NCCOCCOCC(=O)N[C@@H](CCC(=O)N[C@@H](CCC(=O)N[C@@H](CCCCNC(=O)C*)C(=O)O)C(=O)O)C(=O)O; X7 = O=C(O)CCCCCCCCCCCCCCCCCCC(=O)NCCOCCOCC(=O)N[C@@H](CCC(=O)N[C@H](CCC(=O)N[C@H](CCCCNC(=O)C*)C(=O)O)C(=O)O)C(=O)O; X5 = O=C(O)CCCCCCCCCCCCCCCCCCC(=O)N[C@@H](CCC(=O)NCCOCCOCC(=O)NCCOCCOCC(=O)N[C@@H](CCCCNC(=O)C*)C(=O)O)C(=O)O; Aib = CC(C)(N)C(=O)O

How the values were obtained:
[1] = target: T1, Gastric inhibitory polypeptide receptor (Homo sapiens, UniProt P48546); assay: Agonist activity at human GIPR expressed in CHO cells assessed as increase in cAMP production incubated for 30 mins by Eu-cAMP tracer based microplate reader analysis; format: functional, cell-based
T1 sequence (P48546 whole entry): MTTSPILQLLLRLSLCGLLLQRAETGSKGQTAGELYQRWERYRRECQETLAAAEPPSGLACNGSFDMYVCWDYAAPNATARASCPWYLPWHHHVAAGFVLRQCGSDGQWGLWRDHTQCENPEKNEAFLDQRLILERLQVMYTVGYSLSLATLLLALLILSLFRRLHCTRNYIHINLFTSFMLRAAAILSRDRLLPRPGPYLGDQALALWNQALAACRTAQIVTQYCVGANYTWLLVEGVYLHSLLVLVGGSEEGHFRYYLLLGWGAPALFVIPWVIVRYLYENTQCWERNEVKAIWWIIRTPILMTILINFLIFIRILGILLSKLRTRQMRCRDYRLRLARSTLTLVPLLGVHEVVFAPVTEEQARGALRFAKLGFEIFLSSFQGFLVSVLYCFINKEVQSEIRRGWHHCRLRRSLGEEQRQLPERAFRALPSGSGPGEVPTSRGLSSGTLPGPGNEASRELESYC

[2] = target: Glucagon-like peptide 1 receptor (Homo sapiens, UniProt P43220); assay: Agonist activity at human GLP-1R expressed in CHO cells assessed as increase in cAMP production incubated for 30 mins by Eu-cAMP tracer based microplate reader analysis; format: functional, cell-based
Sequence of Glucagon-like peptide 1 receptor (P43220 whole entry): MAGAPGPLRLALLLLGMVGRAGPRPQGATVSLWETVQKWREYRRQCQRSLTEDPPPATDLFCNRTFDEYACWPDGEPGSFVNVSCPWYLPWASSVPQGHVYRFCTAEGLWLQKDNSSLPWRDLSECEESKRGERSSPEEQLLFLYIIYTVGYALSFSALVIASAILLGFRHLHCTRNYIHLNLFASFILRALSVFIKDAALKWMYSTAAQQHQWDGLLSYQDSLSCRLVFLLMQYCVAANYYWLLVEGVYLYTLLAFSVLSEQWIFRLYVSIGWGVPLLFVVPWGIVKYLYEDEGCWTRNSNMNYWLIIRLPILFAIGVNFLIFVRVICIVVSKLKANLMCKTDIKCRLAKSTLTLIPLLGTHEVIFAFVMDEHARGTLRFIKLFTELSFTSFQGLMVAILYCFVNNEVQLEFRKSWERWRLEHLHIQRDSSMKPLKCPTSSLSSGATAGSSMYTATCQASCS

| SMILES | EC50 ([1]; cho) | EC50 ([2]; cho) | EC50 [1] | EC50 [2] |
| --- | --- | --- | --- | --- |
| CC(C)C[C@H](NC(=O)[C@H](CC(C)C)NC(=O)[C@H](Cc1c[nH]c2ccccc12)NC(=O)[C@H](CCC(N)=O)NC(=O)[C@@H](NC(=O)[C@H](Cc1ccccc1)NC(=O)[C@H](CC(C)C)NC(=O)[C@H](CCCCN)NC(=O)[C@H](C)NC(=O)[C@H](C)NC(=O)[C@H](CCC(N)=O)NC(=O)[C@H](CSCC(=O)NCCCC[C@@H](NC(=O)CC[C@@H](NC(=O)CC[C@H](NC(=O)COCCOCCNC(=O)CCCCCCCCCCCCCCCCCCC(=O)O)C(=O)O)C(=O)O)C(=O)O)NC(=O)[C@H](CCC(=O)O)NC(=O)[C@H](CC(C)C)NC(=O)[C@H](Cc1ccc(O)cc1)NC(=O)[C@H](Cc1ccc(O)cc1)NC(=O)[C@H](CO)NC(=O)[C@H](Cc1ccc(O)cc1)NC(=O)[C@H](CC(=O)O)NC(=O)[C@H](CO)NC(=O)[C@@H](NC(=O)[C@H](Cc1ccccc1)NC(=O)[C@@H](NC(=O)CNC(=O)[C@H](CCC(=O)O)NC(=O)C(C)(C)NC(=O)[C@@H](N)Cc1ccc(O)cc1)[C@@H](C)O)[C@@H](C)O)C(C)C)C(=O)N[C@@H](C)C(=O)NCC(=O)NCC(=O)N1CCC[C@H]1C(=O)N[C@@H](CO)C(=O)N[C@@H](CO)C(=O)NCC(=O)N[C@@H](C)C(=O)N1CCC[C@H]1C(=O)N1CCC[C@H]1C(=O)N1CCC[C@H]1C(=O)N[C@@H](CO)C(N)=O (H-Y[Aib]EGTFTSDYSYYLEC(X7)QAAKLFVQWLLAGGPSSGAPPPS-NH2) | 0.2 nM | 0.51 nM | – | – |
| CC(C)C[C@H](NC(=O)[C@H](CC(C)C)NC(=O)[C@H](Cc1c[nH]c2ccccc12)NC(=O)[C@H](CCC(N)=O)NC(=O)[C@@H](NC(=O)[C@H](Cc1ccccc1)NC(=O)[C@H](CC(C)C)NC(=O)[C@H](CCCCN)NC(=O)[C@H](C)NC(=O)[C@H](C)NC(=O)[C@H](CCC(N)=O)NC(=O)[C@H](CCCCN)NC(=O)[C@H](CCC(=O)O)NC(=O)[C@H](CC(C)C)NC(=O)[C@H](CSCC(=O)NCCCC[C@H](NC(=O)[C@@H](N)CCCCNC(=O)[C@@H](N)CCCCNC(=O)CC[C@H](NC(=O)CCCCCCCCCCCCCCCCCCC(=O)O)C(=O)O)C(=O)O)NC(=O)[C@H](Cc1ccc(O)cc1)NC(=O)[C@H](CO)NC(=O)[C@H](Cc1ccc(O)cc1)NC(=O)[C@H](CC(=O)O)NC(=O)[C@H](CO)NC(=O)[C@@H](NC(=O)[C@H](Cc1ccccc1)NC(=O)[C@@H](NC(=O)CNC(=O)[C@H](CCC(=O)O)NC(=O)C(C)(C)NC(=O)[C@@H](N)Cc1ccc(O)cc1)[C@@H](C)O)[C@@H](C)O)C(C)C)C(=O)N[C@@H](C)C(=O)NCC(=O)NCC(=O)N1CCC[C@H]1C(=O)N[C@@H](CO)C(=O)N[C@@H](CO)C(=O)NCC(=O)N[C@@H](C)C(=O)N1CCC[C@H]1C(=O)N1CCC[C@H]1C(=O)N1CCC[C@H]1C(=O)N[C@@H](CO)C(N)=O (H-Y[Aib]EGTFTSDYSYC(X1)LEKQAAKLFVQWLLAGGPSSGAPPPS-NH2) | – | – | 0.14 nM | 0.46 nM |
| CC(C)C[C@H](NC(=O)[C@H](CC(C)C)NC(=O)[C@H](Cc1c[nH]c2ccccc12)NC(=O)[C@H](CSCC(=O)NCCCC[C@H](NC(=O)[C@@H](N)CCCCNC(=O)[C@@H](N)CCCCNC(=O)CC[C@H](NC(=O)CCCCCCCCCCCCCCCCCCC(=O)O)C(=O)O)C(=O)O)NC(=O)[C@@H](NC(=O)[C@H](Cc1ccccc1)NC(=O)[C@H](CC(C)C)NC(=O)[C@H](CCCCN)NC(=O)[C@H](C)NC(=O)[C@H](C)NC(=O)[C@H](CCC(N)=O)NC(=O)[C@H](CCCCN)NC(=O)[C@H](CCC(=O)O)NC(=O)[C@H](CC(C)C)NC(=O)[C@H](Cc1ccc(O)cc1)NC(=O)[C@H](Cc1ccc(O)cc1)NC(=O)[C@H](CO)NC(=O)[C@H](Cc1ccc(O)cc1)NC(=O)[C@H](CC(=O)O)NC(=O)[C@H](CO)NC(=O)[C@@H](NC(=O)[C@H](Cc1ccccc1)NC(=O)[C@@H](NC(=O)CNC(=O)[C@H](CCC(=O)O)NC(=O)C(C)(C)NC(=O)[C@@H](N)Cc1ccc(O)cc1)[C@@H](C)O)[C@@H](C)O)C(C)C)C(=O)N[C@@H](C)C(=O)NCC(=O)NCC(=O)N1CCC[C@H]1C(=O)N[C@@H](CO)C(=O)N[C@@H](CO)C(=O)NCC(=O)N[C@@H](C)C(=O)N1CCC[C@H]1C(=O)N1CCC[C@H]1C(=O)N1CCC[C@H]1C(=O)N[C@@H](CO)C(N)=O (H-Y[Aib]EGTFTSDYSYYLEKQAAKLFVC(X1)WLLAGGPSSGAPPPS-NH2) | – | – | 7.2 nM | 0.29 nM |
| CC(C)C[C@H](NC(=O)[C@H](CC(C)C)NC(=O)[C@H](Cc1c[nH]c2ccccc12)NC(=O)[C@H](CCC(N)=O)NC(=O)[C@@H](NC(=O)[C@H](Cc1ccccc1)NC(=O)[C@H](CC(C)C)NC(=O)[C@H](CSCC(=O)NCCCC[C@H](NC(=O)COCCOCCNC(=O)COCCOCCNC(=O)CC[C@H](NC(=O)CCCCCCCCCCCCCCCCCCC(=O)O)C(=O)O)C(=O)O)NC(=O)[C@H](C)NC(=O)[C@H](C)NC(=O)[C@H](CCC(N)=O)NC(=O)[C@H](CCCCN)NC(=O)[C@H](CCC(=O)O)NC(=O)[C@H](CC(C)C)NC(=O)[C@H](Cc1ccc(O)cc1)NC(=O)[C@H](Cc1ccc(O)cc1)NC(=O)[C@H](CO)NC(=O)[C@H](Cc1ccc(O)cc1)NC(=O)[C@H](CC(=O)O)NC(=O)[C@H](CO)NC(=O)[C@@H](NC(=O)[C@H](Cc1ccccc1)NC(=O)[C@@H](NC(=O)CNC(=O)[C@H](CCC(=O)O)NC(=O)C(C)(C)NC(=O)[C@@H](N)Cc1ccc(O)cc1)[C@@H](C)O)[C@@H](C)O)C(C)C)C(=O)N[C@@H](C)C(=O)NCC(=O)NCC(=O)N1CCC[C@H]1C(=O)N[C@@H](CO)C(=O)N[C@@H](CO)C(=O)NCC(=O)N[C@@H](C)C(=O)N1CCC[C@H]1C(=O)N1CCC[C@H]1C(=O)N1CCC[C@H]1C(=O)N[C@@H](CO)C(N)=O (H-Y[Aib]EGTFTSDYSYYLEKQAAC(X5)LFVQWLLAGGPSSGAPPPS-NH2) | – | – | 1.31 nM | 0.49 nM |
| CC(C)C[C@H](NC(=O)[C@H](CC(C)C)NC(=O)[C@H](Cc1c[nH]c2ccccc12)NC(=O)[C@H](CSCC(=O)NCCCC[C@H](NC(=O)CC[C@H](NC(=O)CC[C@H](NC(=O)COCCOCCNC(=O)CCCCCCCCCCCCCCCCC(=O)O)C(=O)O)C(=O)O)C(=O)O)NC(=O)[C@@H](NC(=O)[C@H](Cc1ccccc1)NC(=O)[C@H](CC(C)C)NC(=O)[C@H](CCCCN)NC(=O)[C@H](C)NC(=O)[C@H](C)NC(=O)[C@H](CCC(N)=O)NC(=O)[C@H](CCCCN)NC(=O)[C@H](CCC(=O)O)NC(=O)[C@H](CC(C)C)NC(=O)[C@H](Cc1ccc(O)cc1)NC(=O)[C@H](Cc1ccc(O)cc1)NC(=O)[C@H](CO)NC(=O)[C@H](Cc1ccc(O)cc1)NC(=O)[C@H](CC(=O)O)NC(=O)[C@H](CO)NC(=O)[C@@H](NC(=O)[C@H](Cc1ccccc1)NC(=O)[C@@H](NC(=O)CNC(=O)[C@H](CCC(=O)O)NC(=O)C(C)(C)NC(=O)[C@@H](N)Cc1ccc(O)cc1)[C@@H](C)O)[C@@H](C)O)C(C)C)C(=O)N[C@@H](C)C(=O)NCC(=O)NCC(=O)N1CCC[C@H]1C(=O)N[C@@H](CO)C(=O)N[C@@H](CO)C(=O)NCC(=O)N[C@@H](C)C(=O)N1CCC[C@H]1C(=O)N1CCC[C@H]1C(=O)N1CCC[C@H]1C(=O)N[C@@H](CO)C(N)=O (H-Y[Aib]EGTFTSDYSYYLEKQAAKLFVC(X3)WLLAGGPSSGAPPPS-NH2) | – | – | 0.46 nM | 0.29 nM |
